In patent publication US8476253B2, “Amide derivative” (Daiichi Sankyo Company, Limited, priority 2009, dated 2013):
Where a name gives a salt, the structure may show the parent alone. Read-outs that look alike come from different tables or passages of the source.

How the values were obtained:
substance P receptor = molecular target: T1, substance P receptor (Cavia porcellus, UniProt P30547); test: Test for binding to guinea-pig substance P receptor (crude lung membrane sample); conditions: crude guinea-pig lung membrane sample, [3H]substance P; Ki from IC50 and Kd; read-out: Ki
T1 construct: A preparation of a crude lung membrane sample was prepared; from tissue; host or cells: guinea-pig lung (crude membrane sample)
T1 sequence (P30547 whole entry): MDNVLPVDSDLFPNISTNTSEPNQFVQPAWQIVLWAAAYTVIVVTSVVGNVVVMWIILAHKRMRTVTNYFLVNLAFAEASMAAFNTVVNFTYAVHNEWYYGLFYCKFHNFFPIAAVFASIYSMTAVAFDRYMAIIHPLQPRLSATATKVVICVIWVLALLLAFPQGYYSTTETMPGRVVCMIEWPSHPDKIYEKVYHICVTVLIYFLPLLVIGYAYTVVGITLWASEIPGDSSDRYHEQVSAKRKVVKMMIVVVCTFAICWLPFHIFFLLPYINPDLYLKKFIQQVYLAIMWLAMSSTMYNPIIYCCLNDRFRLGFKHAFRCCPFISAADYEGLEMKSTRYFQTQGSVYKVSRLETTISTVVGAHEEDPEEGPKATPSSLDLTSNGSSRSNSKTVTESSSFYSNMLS
Description: A preparation of a crude lung membrane sample was prepared, and a test for binding of a test substance to the sample was performed according to the method described in EP0336230A2.
The binding effect of the test substance to a substance P receptor was calculated as an affinity (Ki) of the test substance for the substance P receptor from a 50% binding concentration (IC50) and an affinity (Kd) of [^3H]substance P for the substance P receptor.

human M3 receptor = molecular target: T2, human M3 receptor (Homo sapiens, UniProt P20309); test: Test for binding to human M3 receptor
T2 construct: expressed in transfected cells; host or cells: CHO cells
T2 sequence (P20309 whole entry): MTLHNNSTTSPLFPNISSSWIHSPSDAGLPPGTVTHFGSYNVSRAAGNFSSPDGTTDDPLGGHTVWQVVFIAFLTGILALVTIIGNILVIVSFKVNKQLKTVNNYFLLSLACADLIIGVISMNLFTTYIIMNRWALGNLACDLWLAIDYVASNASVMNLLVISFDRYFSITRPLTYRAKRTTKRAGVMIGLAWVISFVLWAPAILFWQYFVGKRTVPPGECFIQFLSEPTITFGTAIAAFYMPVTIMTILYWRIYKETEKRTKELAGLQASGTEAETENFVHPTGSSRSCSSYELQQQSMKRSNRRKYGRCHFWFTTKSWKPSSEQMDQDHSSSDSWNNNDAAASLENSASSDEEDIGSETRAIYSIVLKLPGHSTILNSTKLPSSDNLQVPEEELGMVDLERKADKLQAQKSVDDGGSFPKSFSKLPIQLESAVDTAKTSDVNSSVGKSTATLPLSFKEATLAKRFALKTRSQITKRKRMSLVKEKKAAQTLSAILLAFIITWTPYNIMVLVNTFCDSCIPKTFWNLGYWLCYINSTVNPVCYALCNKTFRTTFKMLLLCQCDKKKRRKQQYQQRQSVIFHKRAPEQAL
Description: A solution of cryopreserved CHO cells expressing human M3 receptor was diluted with a buffer (50 mM tris-hydrochloride containing 0.5 mM of EDTA, pH 7.4) to obtain 5.0×10^5 of cells/mL and used as a crude membrane sample.
[N-methyl-^3H]-(−)-Scopolamine methyl chloride (GE Healthcare Japan Corporation) was diluted with 50 mM of tris-hydrochloride containing 0.5 mM of EDTA (pH 7.4), a test substance and 250 μL of the crude membrane sample solution were added to 250 μL of the mixture, and the mixture was incubated at room temperature for 60 minutes. […] The glass fiber filter paper was pretreated with a 0.1% polyethylenimine solution for 4 hours or longer to minimize non-specific binding. The filter collecting membrane components was transferred to a small-size plastic vial containing 3 mL of Pico-Fluor, and the radioactivity was measured with a liquid scintillation counter (Tri-Carb 2900TR or 2300TR; Perkin Elmer).
The effect of binding to the M3 receptor was calculated as the affinity (Ki) of the test substance for the M3 receptor from a 50% binding dose (IC50) and the affinity (Kd) of [N-methyl-^3H]-(−)-Scopolamine methyl chloride for the M3 receptor.

human NK2 receptor = molecular target: T3, human NK2 receptor (Homo sapiens, UniProt P21452); test: Test for binding to human NK2 receptor
T3 construct: expressed in transfected cells; host or cells: COS cells
T3 sequence (P21452 1-398): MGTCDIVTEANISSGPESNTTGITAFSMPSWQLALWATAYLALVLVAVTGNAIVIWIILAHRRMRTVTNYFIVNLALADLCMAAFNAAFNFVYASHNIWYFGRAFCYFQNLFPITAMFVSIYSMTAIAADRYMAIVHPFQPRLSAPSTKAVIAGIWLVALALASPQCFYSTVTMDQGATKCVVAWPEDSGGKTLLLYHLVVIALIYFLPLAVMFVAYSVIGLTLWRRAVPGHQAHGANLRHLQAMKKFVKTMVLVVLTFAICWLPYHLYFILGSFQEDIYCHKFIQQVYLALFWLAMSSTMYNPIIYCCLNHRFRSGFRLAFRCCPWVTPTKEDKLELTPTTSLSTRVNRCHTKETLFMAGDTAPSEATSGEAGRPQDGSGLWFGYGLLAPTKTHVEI
Description: A solution of cryopreserved COS cells expressing human NK2 receptor was diluted with a buffer (50 mM tris-hydrochloride containing 0.04% of bovine serum albumin [BSA], pH 7.4) to obtain a concentration of 5.0×10^5 cells/mL and used as a crude membrane sample.
[^3H]SR 48968 (GE Healthcare Japan Corporation) was diluted with a mixture of 50 mM of tris-hydrochloride (pH 7.4), 6 mM of manganese chloride tetrahydrate, 800 μg/mL of BSA, 8 μg/mL of chymostatin, 8 μg/mL of leupeptin, 80 μg/mL of bacitracin, and 20 μg/mL of phosphoramidon. […] After the reaction, the membrane components were collected on a GF/B glass fiber filter paper (Whatman; Biomedical Research and Development Laboratories, Inc.) with an automated filtration system (Brandel; Biomedical Research and Development Laboratories, Inc.). The glass fiber filter paper was pretreated with a 0.1% polyethylenimine solution for 4 hours or longer to minimize non-specific binding. The filter collecting the membrane components was transferred to a small-size plastic vial containing 3 mL of Pico-Fluor, and the radioactivity was measured with a liquid scintillation counter (Tri-Carb 2900TR or 2300TR; Perkin Elmer).
The effect of binding to the NK2 receptor was calculated as the affinity (Ki) of the test substance for the NK2 receptor from a 50% binding dose (IC50) and the affinity (Kd) of [^3H]SR 48968 for the NK2 receptor.

[1] = CHO cells expressing human M3 receptor, [N-methyl-3H]-(-)-Scopolamine methyl chloride 0.5 nM, Ki from IC50 and Kd, read-out: Ki
[2] = COS cells expressing human NK2 receptor, [3H]SR 48968 1 nM, Ki from IC50 and Kd, read-out: Ki

Row | Structure (SMILES) | Ki (substance P receptor) [nM] | Ki (human M3 receptor) [nM] | Ki (human NK2 receptor) [nM] | Ki (human M3 receptor; [1]) [nM] | Ki (human NK2 receptor; [2]) [nM]
1 | CN(CCN1CCC(OC(=O)Nc2ccccc2-c2ccccc2)CC1)C(=O)CCCCCNc1ccc(C(=O)N(C)CCCN(C)C(=O)CO[C@H]2Cc3ccccc3C23CCN(CC[C@@]2(c4ccc(F)cc4)CN(C(=O)c4cc(C(F)(F)F)cc(C(F)(F)F)c4)CO2)CC3)cc1F [Example 13, 1-(2-{[6-({4-[{3-[({[(2S)-1′-{2-[(5R)-3-[3,5-Bis(trifluoromethyl)benzoyl]-5-(4-fluorophenyl)-1,3-oxazolidin-5-yl]ethyl}-2,3-dihydrospiro[indene-1,4′-piperidin]-2-yl]oxy}acetyl)(methyl)amino]propyl}(methyl)carbamoyl]-2-fluorophenyl}amino)hexanoyl](methyl)amino}ethyl)piperidin-4-yl biphenyl-2-ylcarbamate trihydrochloride] | 2.6 | 1.2 | 0.65 | – | –
2 | Cc1cc(NCCCCCC(=O)N(C)CCN2CCC(OC(=O)Nc3ccccc3-c3ccccc3)CC2)sc1C(=O)N(C)CCN(C)C(=O)CO[C@H]1Cc2ccccc2C12CCN(CC[C@@]1(c3ccc(F)cc3)CN(C(=O)c3cc(C(F)(F)F)cc(C(F)(F)F)c3)CO1)CC2 [Example 89, 1-(2-{[6-({5-[{2-[({[(2S)-1′-{2-[(5R)-3-[3,5-Bis(trifluoromethyl)benzoyl]-5-(4-fluorophenyl)-1,3-oxazolidin-5-yl]ethyl}-2,3-dihydrospiro[indene-1,4′-piperidin]-2-yl]oxy}acetyl)(methyl)amino]ethyl}(methyl)carbamoyl]-4-methyl-2-thienyl}amino)hexanoyl](methyl)amino}ethyl)piperidin-4-yl biphenyl-2-ylcarbamate] | 0.74 | – | – | 1.2 | 0.75
3 | Cc1nc(NCCCCCC(=O)N(C)CCN2CCC(OC(=O)Nc3ccccc3-c3ccccc3)CC2)sc1C(=O)N(C)CCN(C)C(=O)CO[C@H]1Cc2ccccc2C12CCN(CC[C@@]1(c3ccc(F)cc3)CN(C(=O)c3cc(C(F)(F)F)cc(C(F)(F)F)c3)CO1)CC2 [Example 107, 1-(2-{[6-({5-[{2-[({[(2S)-1′-{2-[(5R)-3-[3,5-Bis(trifluoromethyl)benzoyl]-5-(4-fluorophenyl)-1,3-oxazolidin-5-yl]ethyl}-2,3-dihydrospiro[indene-1,4′-piperidin]-2-yl]oxy}acetyl)(methyl)amino]ethyl}(methyl)carbamoyl]-4-methyl-1,3-thiazol-2-yl}amino)hexanoyl](methyl)amino}ethyl)piperidin-4-yl biphenyl-2-ylcarbamate trihydrochloride] | 1.2 | 1.4 | 0.59 | – | –
4 | Cc1nc(N(C)CCCCCC(=O)N(C)CCN2CCC(OC(=O)Nc3ccccc3-c3ccccc3)CC2)sc1C(=O)N(C)CCN(C)C(=O)CO[C@H]1Cc2ccccc2C12CCN(CC[C@@]1(c3ccc(F)cc3)CN(C(=O)c3cc(C(F)(F)F)cc(C(F)(F)F)c3)CO1)CC2 [Example 108, 1-{2-[{6-[{5-[{2-[({[(2S)-1′-{2-[(5R)-3-[3,5-Bis(trifluoromethyl)benzoyl]-5-(4-fluorophenyl)-1,3-oxazolidin-5-yl]ethyl}-2,3-dihydrospiro[indene-1,4′-piperidin]-2-yl]oxy}acetyl)(methyl)amino]ethyl}(methyl)carbamoyl]-4-methyl-1,3-thiazol-2-yl}(methyl)amino]hexanoyl}(methyl)amino]ethyl}piperidin-4-yl biphenyl-2-ylcarbamate trihydrochloride] | 1.3 | 3 | 0.79 | – | –
5 | CN(CCN1CCC(OC(=O)Nc2ccccc2-c2ccccc2)CC1)C(=O)CCCCCNCc1ccc(C(=O)N(C)CCCN(C)C(=O)CO[C@H]2Cc3ccccc3C23CCN(CC[C@@]2(c4ccc(F)cc4)CN(C(=O)c4cc(C(F)(F)F)cc(C(F)(F)F)c4)CO2)CC3)nc1 [Example 7, 1-{2-[{6-[({6-[{3-[({[(2S)-1′-{2-[(5R)-3-[3,5-Bis(trifluoromethyl)benzoyl]-5-(4-fluorophenyl)-1,3-oxazolidin-5-yl]ethyl}-2,3-dihydrospiro[indene-1,4′-piperidin]-2-yl]oxy}acetyl)(methy)amino]propyl}(methyl)carbamoyl]pyridin-3-yl}methyl)amino]hexanoyl}(methyl)amino]ethyl}piperidin-4-yl biphenyl-2-ylcarbamate] | 0.57 | – | – | 0.9 | 0.17
6 | CN(CCN1CCC(OC(=O)Nc2ccccc2-c2ccccc2)CC1)C(=O)CCCCCNc1ccc(NC(=O)CCCN(C)C(=O)CO[C@H]2Cc3ccccc3C23CCN(CC[C@@]2(c4ccc(F)cc4)CN(C(=O)c4cc(C(F)(F)F)cc(C(F)(F)F)c4)CO2)CC3)cc1 [Example 82, 1-{2-[(6-{[4-({4-[({[(2S)-1′-{2-[(5R)-3-[3,5-Bis(trifluoromethyl)benzoyl]-5-(4-fluorophenyl)-1,3-oxazolidin-5-yl]ethyl}-2,3-dihydrospiro[indene-1,4′-piperidin]-2-yl]oxy}acetyl)(methyl)amino]butanoyl}amino)phenyl]amino}hexanoyl)(methyl)amino]ethyl}piperidin-4-yl biphenyl-2-ylcarbamate trihydrochloride] | 4.5 | 1.6 | 0.6 | – | –
7 | CN(CCCCCC(=O)N(C)CCN1CCC(OC(=O)Nc2ccccc2-c2ccccc2)CC1)Cc1cccc(C(=O)N(C)CCCN(C)C(=O)CO[C@H]2Cc3ccccc3C23CCN(CC[C@@]2(c4ccc(F)cc4)CN(C(=O)c4cc(C(F)(F)F)cc(C(F)(F)F)c4)CO2)CC3)c1 [Example 41, 1-{2-[{6-[{3-[{3-[({[(2S)-1′-{2-[(5R)-3-[3,5-Bis(trifluoromethyl)benzoyl]-5-(4-fluorophenyl)-1,3-oxazolidin-5-yl]ethyl}-2,3-dihydrospiro[indene-1,4′-piperidin]-2-yl]oxy}acetyl)(methyl)amino]propyl}(methyl)carbamoyl]benzyl}(methyl)amino]hexanoyl}(methyl)amino]ethyl}piperidin-4-yl biphenyl-2-ylcarbamate trihydrochloride] | 0.96 | 1.4 | 0.26 | – | –
8 | CN(CCN1CCC(OC(=O)Nc2ccccc2-c2ccccc2)CC1)C(=O)CCCCCN(C)c1ccc(C(=O)N(C)CCCN(C)C(=O)CO[C@H]2Cc3ccccc3C23CCN(CC[C@@]2(c4ccc(F)cc4)CN(C(=O)c4cc(C(F)(F)F)cc(C(F)(F)F)c4)CO2)CC3)s1 [Example 8, 1-{2-[{6-[{5-[{3-[({[(2S)-1′-{2-[(5R)-3-[3,5-Bis(trifluoromethyl)benzoyl]-5-(4-fluorophenyl)-1,3-oxazolidin-5-yl]ethyl}-2,3-dihydrospiro[indene-1,4′-piperidin]-2-yl]oxy}acetyl)(methyl)amino]propyl}(methyl)carbamoyl]-2-thienyl}(methyl)amino]hexanoyl}(methyl)amino]ethyl}piperidin-4-yl biphenyl-2-ylcarbamate] | 2.6 | – | – | 1.9 | 0.38
